# Patent EP0550016A1, “Novel quinolone carboxylic acid derivatives and processes for preparing same” (KOREA RESEARCH INSTITUTE OF CHEMICAL TECHNOLOGY, priority 1991, dated 1993)
# Read-outs that look alike come from different tables or passages of the source.
# Experiments:
# [1] = system: Streptococcus pyogenes 308 A; assay: In vitro anti-bacterial activity test (MIC, two-fold dilution method) against the standard strains; assay type: cell-based; conditions: Table 1 strain 1: Streptococcus pyogenes 308 A
# [2] = system: Streptococcus pyogenes 77 A; assay: as above; assay type: cell-based
# [3] = system: Streptococcus faecium MD 8b; assay: as above; assay type: cell-based; conditions: Enterococcus faecium, MD8B
# [4] = system: Staphylococcus aureus SG 511; assay: as above; assay type: cell-based; conditions: SG511; Table 1 strain 4: Staphylococcus aureus SG 511
# [5] = system: Staphylococcus aureus 285; assay: as above; assay type: cell-based
# [6] = system: Staphylococcus aureus 503; assay: as above; assay type: cell-based
# Escherichia coli DC 0 [7] = assay: as above; assay type: cell-based; conditions: DC0; Table 1 strain 7: Escherichia coli DC 0
# Escherichia coli DC 0 [8] = assay: as above; assay type: cell-based; conditions: DC0; Table 1 strain 8: Escherichia coli DC 0
# Escherichia coli DC 2 = assay: as above; assay type: cell-based; conditions: DC2; Table 1 strain 9: Escherichia coli DC 2; read-out: MIC
# Escherichia coli OTEM = assay: as above; assay type: cell-based; conditions: Table 1 strain 10: Escherichia coli OTEM
# Escherichia coli 1507 E = assay: as above; assay type: cell-based; conditions: Table 1 strain 11: Escherichia coli 1507 E
# [9] = system: Pseudomonas aeruginosa 9027; assay: as above; assay type: cell-based; conditions: Table 1 strain 12: Pseudomonas aeruginosa 9027
# [10] = system: Pseudomonas aeruginosa 1592 E; assay: as above; assay type: cell-based; conditions: Table 1 strain 13: Pseudomonas aeruginosa 1592 E
# [11] = system: Pseudomonas aeruginosa 1771; assay: as above; assay type: cell-based; conditions: Table 1 strain 14: Pseudomonas aeruginosa 1771
# [12] = system: Pseudomonas aeruginosa 1771 M; assay: as above; assay type: cell-based; conditions: Table 1 strain 15: Pseudomonas aeruginosa 1771 M
# [13] = system: Klebsiella aerogenes 1082 E; assay: as above; assay type: cell-based; conditions: Table 1 strain 17: Klebsiella aerogenes 1082 E
# [14] = system: Staphylococcus aureus 88 E; assay: In vitro anti-bacterial activity test (MIC, two-fold dilution method), Table 2 strains; assay type: cell-based; conditions: Table 2 strain 1: Staphylococcus aureus 88 E
# [15] = system: Staphylococcus aureus 121 E; assay: as above; assay type: cell-based
# [16] = system: Staphylococcus aureus 208 E; assay: as above; assay type: cell-based
# [17] = system: Staphylococcus aureus 256 E; assay: as above; assay type: cell-based; conditions: Table 2 strain 4: Staphylococcus aureus 256 E
# [18] = system: Staphylococcus aureus 690 E; assay: as above; assay type: cell-based
# [19] = system: Staphylococcus aureus 692 E; assay: as above; assay type: cell-based; conditions: Table 2 strain 6: Staphylococcus aureus 692 E
# [20] = system: Staphylococcus aureus 693 E; assay: as above; assay type: cell-based
# [21] = system: Staphylococcus aureus 694 E; assay: as above; assay type: cell-based
# [22] = system: Staphylococcus aureus 695 E; assay: as above; assay type: cell-based
# [23] = system: Staphylococcus aureus 697 E; assay: as above; assay type: cell-based; conditions: Table 2 strain 10: Staphylococcus aureus 697 E
# [24] = system: Staphylococcus aureus 701 E; assay: as above; assay type: cell-based
# [25] = system: Staphylococcus aureus 703 E; assay: as above; assay type: cell-based
# [26] = system: Staphylococcus aureus 705 E; assay: as above; assay type: cell-based
# [27] = system: Staphylococcus aureus 706 E; assay: as above; assay type: cell-based
# [28] = system: Staphylococcus aureus 707 E; assay: as above; assay type: cell-based
# [29] = system: Staphylococcus aureus 708 E; assay: as above; assay type: cell-based; conditions: Table 2 strain 16: Staphylococcus aureus 708 E
# [30] = system: Staphylococcus aureus 711 E; assay: as above; assay type: cell-based
# [31] = system: Staphylococcus aureus 714 E; assay: as above; assay type: cell-based
# [32] = system: Staphylococcus aureus 725 E; assay: as above; assay type: cell-based
# P. mirabilis = assay: Preventive effect against the systemic infection; assay type: in vivo; conditions: Proteus mirabilis, 168 h, NMRI mice, survival on day 7, read-out: ED₅₀
# Procedure: (§1) 10 fold of the pathogen which leads to 100% lethality were injected intraperitoneally to male and female NMRI mice weighing 18 to 20g. Immediately and after 4 hours, the dose of test compounds which was determined by two-fold serial dilution method was administered orally or subcutaneously; and on day 7, the effectiveness was evaluated in terms of ED₅₀ calculated from the number of survived mice by the probit analysis.
# S. aureus 17740 = assay: Preventive effect against the systemic infection; assay type: in vivo; conditions: Staphylococcus aureus, 168 h, Oral Administration, NMRI mice, survival on day 7, read-out: ED₅₀
# Procedure: as §1
# Salmonella typhimurium = assay: In vitro anti-bacterial activity test (MIC, two-fold dilution method) against the standard strains; assay type: cell-based; conditions: Salmonella enterica; Table 1 strain 16: Salmonella typhimurium
# [33] = system: Klebsiella aerogenes 1522 E; assay: as above; assay type: cell-based; conditions: Table 1 strain 18: Klebsiella aerogenes 1522 E
# [34] = system: Enterobacter cloacae P 99; assay: as above; assay type: cell-based; conditions: P99; Table 1 strain 19: Enterobacter cloacae P 99
# [35] = system: Enterobacter cloacae 1321 E; assay: as above; assay type: cell-based; conditions: Table 1 strain 20: Enterobacter cloacae 1321 E
smiles,measurement,setting,value
"O=C(O)c1cn(C2CC2)c2cc(N3CCNCC3)c(F)cc2c1=O [Ciprofloxacin, ciprofloxacin, reference compound]",MIC,[1],3.12 µg/mL
same,MIC,"[2]; Streptococcus pyogenes, 77A",0.781 µg/mL
same,MIC,[3],0.781 µg/mL
same,MIC,[4],0.195 µg/mL
same,MIC,"[5]; Staphylococcus aureus, 285",0.781 µg/mL
same,MIC,"[6]; Staphylococcus aureus, 503",0.781 µg/mL
same,MIC,Escherichia coli DC 0 [7],0.002 µg/mL
same,MIC,Escherichia coli DC 0 [8],0.391 µg/mL
same,MIC,Escherichia coli DC 2,0.195 µg/mL
same,MIC,Escherichia coli OTEM,0.007 µg/mL
same,MIC,Escherichia coli 1507 E,0.007 µg/mL
same,MIC,[9],0.391 µg/mL
same,MIC,[10],0.391 µg/mL
same,MIC,[11],0.391 µg/mL
same,MIC,[12],0.098 µg/mL
same,MIC,[13],0.007 µg/mL
same,MIC,[14],1.56 µg/mL
same,MIC,"[15]; Staphylococcus aureus, 121E",0.781 µg/mL
same,MIC,"[16]; Staphylococcus aureus, 208E",0.781 µg/mL
same,MIC,[17],1.56 µg/mL
same,MIC,"[18]; Staphylococcus aureus, 690E",0.781 µg/mL
same,MIC,[19],0.391 µg/mL
same,MIC,"[20]; Staphylococcus aureus, 693E",0.781 µg/mL
same,MIC,"[21]; Staphylococcus aureus, 694E",0.781 µg/mL
same,MIC,"[22]; Staphylococcus aureus, 695E",0.781 µg/mL
same,MIC,[23],0.391 µg/mL
same,MIC,"[24]; Staphylococcus aureus, 701E",0.781 µg/mL
same,MIC,"[25]; Staphylococcus aureus, 703E",0.781 µg/mL
same,MIC,"[26]; Staphylococcus aureus, 705E",0.781 µg/mL
same,MIC,"[27]; Staphylococcus aureus, 706E",0.781 µg/mL
same,MIC,"[28]; Staphylococcus aureus, 707E",0.781 µg/mL
same,MIC,[29],0.195 µg/mL
same,MIC,"[30]; Staphylococcus aureus, 711E",0.781 µg/mL
same,MIC,"[31]; Staphylococcus aureus, 714E",0.781 µg/mL
same,MIC,"[32]; Staphylococcus aureus, 725E",0.781 µg/mL
same,ED50,P. mirabilis; Oral Administration,0.82 mg/kg
same,ED50,"P. mirabilis; sc, Subcutaneous Injection",0.16 mg/kg
same,ED50,S. aureus 17740,> 200 mg/kg
"CNC1CC12CCN(c1c(F)cc3c(=O)c(C(=O)O)cn(C4CC4)c3c1Cl)C2 (centres unmarked) [Example 9, 7-(1-methylamino-5-azaspiro[2,4]heptane-5-yl)-8-chloro-1-cyclopropyl-6-fluoro-1,4-dihydro-4-oxo-quinoline-3-carboxylic acid]",MIC,[1],0.391 µg/mL
same,MIC,"[2]; Table 1 strain 2: Streptococcus pyogenes 77 A, read-out: MIC",0.195 µg/mL
same,MIC,"[3]; Table 1 strain 3: Streptococcus faecium MD 8b, read-out: MIC",0.195 µg/mL
same,MIC,[4],0.049 µg/mL
same,MIC,"[5]; Table 1 strain 5: Staphylococcus aureus 285, read-out: MIC",0.049 µg/mL
same,MIC,"[6]; Table 1 strain 6: Staphylococcus aureus 503, read-out: MIC",0.049 µg/mL
same,MIC,Escherichia coli DC 0 [7],0.025 µg/mL
same,MIC,Escherichia coli DC 0 [8],0.391 µg/mL
same,MIC,Escherichia coli DC 2,0.098 µg/mL
same,MIC,Escherichia coli OTEM,0.049 µg/mL
same,MIC,Escherichia coli 1507 E,0.098 µg/mL
same,MIC,[9],3.12 µg/mL
same,MIC,[10],1.56 µg/mL
same,MIC,[11],1.56 µg/mL
same,MIC,[12],0.781 µg/mL
same,MIC,Salmonella typhimurium,0.049 µg/mL
same,MIC,[13],0.025 µg/mL
same,MIC,[33],0.195 µg/mL
same,MIC,[34],0.098 µg/mL
same,MIC,[35],0.025 µg/mL
same,MIC,[14],0.195 µg/mL
same,MIC,"[15]; Table 2 strain 2: Staphylococcus aureus 121 E, read-out: MIC",0.098 µg/mL
same,MIC,"[16]; Table 2 strain 3: Staphylococcus aureus 208 E, read-out: MIC",0.098 µg/mL
same,MIC,[17],0.098 µg/mL
same,MIC,"[18]; Table 2 strain 5: Staphylococcus aureus 690 E, read-out: MIC",0.049 µg/mL
same,MIC,[19],0.049 µg/mL
same,MIC,"[20]; Table 2 strain 7: Staphylococcus aureus 693 E, read-out: MIC",0.049 µg/mL
same,MIC,"[21]; Table 2 strain 8: Staphylococcus aureus 694 E, read-out: MIC",0.098 µg/mL
same,MIC,"[22]; Table 2 strain 9: Staphylococcus aureus 695 E, read-out: MIC",0.049 µg/mL
same,MIC,[23],0.049 µg/mL
same,MIC,"[24]; Table 2 strain 11: Staphylococcus aureus 701 E, read-out: MIC",0.098 µg/mL
same,MIC,"[25]; Table 2 strain 12: Staphylococcus aureus 703 E, read-out: MIC",0.098 µg/mL
same,MIC,"[26]; Table 2 strain 13: Staphylococcus aureus 705 E, read-out: MIC",0.098 µg/mL
same,MIC,"[27]; Table 2 strain 14: Staphylococcus aureus 706 E, read-out: MIC",0.098 µg/mL
same,MIC,"[28]; Table 2 strain 15: Staphylococcus aureus 707 E, read-out: MIC",0.098 µg/mL
same,MIC,[29],0.025 µg/mL
same,MIC,"[30]; Table 2 strain 17: Staphylococcus aureus 711 E, read-out: MIC",0.025 µg/mL
same,MIC,"[31]; Table 2 strain 18: Staphylococcus aureus 714 E, read-out: MIC",0.098 µg/mL
same,MIC,"[32]; Table 2 strain 19: Staphylococcus aureus 725 E, read-out: MIC",0.098 µg/mL
